Results from US20220389373A1, “METHODS AND SYSTEMS FOR GENERATING THREE-DIMENSIONAL BIOLOGICAL STRUCTURES” (Fluicell AB, priority 2019, published 2022).

System: HaCaT cells
Test: Retinoic acid treatment of bioprinted psoriasis-like skin model, CK10 immunofluorescence
Format: cell-based, human
Conditions: printed stripes of differentiated (cytokine-treated) and non-differentiated HaCaT cells; RA 1 μM in growth media for 20 hrs; versus solvent control

With `CC1=C(/C=C/C(C)=C/C=C/C(C)=C/C(=O)O)C(C)(C)CCC1` [retinoic acid, all-trans retinoic acid] the “decrease in CK10 expression for the treated samples” value was “approximately 20%”.
